Assay results: patent US6274704A, “Peptides derived from the heparin binding domain of fibronectin” (Hisamitsu Pharmaceutical Co., Inc., priority 1996, dated 2001)
Ends that are not written are not given here.

How the values were obtained:
melanoma cell = conditions: in vivo; cited from earlier work
A375 melanoma cell [1] = assay: Cell adhesion inhibition activity of synthetic peptides (cell suspension includes the peptide); format: cell-based; conditions: Concentration 200 μg/ml; adhesion to fibronectin-coated plate, 60 minutes, 0.2% DMSO
Procedure: The above synthetic peptides were used in this experiment after being dissolved in dimethyl sulfoxide (DMSO: Wako Jyunyaku Co.). To adjust a condition of each experiment to the same, DMSO was added into phosphate buffers containing urea-non-treated Hep 2 fragment, urea-treated Hep 2 fragment, GRGDSP peptide and phosphate buffer itself as a control, respectively. The concentration of DMSO of each experiment was adjusted to 0.2% of final concentration. Inhibition activity against cell adhesion was evaluated according to the method of Fukai et al. (Biochem. Biophys. Res. Commun., 220, 394-398, 1996). In other words, the inhibition activity against cell adhesion of A375 melanoma cell to a plate was measured under the condition with or without the above various synthetic peptides. A375 melanoma cell (American Type Culture Collection: ATCC) was suspended in Dulbecco's modified eagle medium (DMEM: Gibuco Co.) including 0.1% Ovalbumin (Wako Jyunyaku Co.) to be a concentration of 2×10^5 cells/ml. Before preparing cell suspension, a plate was coated with fibronectin according to the method of Miekka et al. Specifically, phosphate buffer containing 10 μg/ml of fibronectin (FN) was prepared and 100 μl of the resultant phosphate buffer containing fibronectin was added into each well of a 96-well plate and then the plate was incubated at 37° C., 5% CO2 concentration for 60 minutes before being washed with phosphate buffer three times. Fibronectin (FN) was purified according to the method of Miekka et al. (Thromb. Res., 27, 1-14, 1982). One hundred (100) μl of the above cell suspension was added into each well of the plate and the plate was incubated at 37° C., 5% CO2 concentration for 60 minutes (Control was without any synthetic peptide). After fixing cells in each well with 5% of formaldehyde (Wako Jyunyaku Co.), non adhesion cells were removed and calls in five areas selected at random in each well were counted by the use of a microscope.
The addition of Hep 2 fragment and each peptide was carried out by the step in which a solution containing Hep 2 fragment or each peptides dissolved with high concentration was added to the cell suspension to obtain the final concentration of Hep 2 fragment or each peptides shown in Table 1.

A375 melanoma cell [2] = assay: Cell adhesion inhibition activity (plate coated with fibronectin solution containing KLH modified synthetic peptide); format: cell-based; conditions: Experiment 2, KLH modified peptides coated with fibronectin, FIG. 3
Procedure: The above various KLH modified synthetic peptides were added to a solution containing fibronectin to obtain a given concentration, then the procedure of Experiment 1 were repeated with the exception that the resultant solution were added into 96-well plate to coat it. The experiment without any synthetic peptide is a control (the concentration of a peptide was 0 μg/m 1).

Substance | Cell adhesion inhibition activity (A375 melanoma cell [1]) [%] | other results
GRGDS |  | inhibition of experimental metastasis of melanoma cell to lung (melanoma cell): inhibits experimental metastasis of melanoma cell to lung
III 12-1: peptide consisting of SEQ ID NO:1, part of Hep 2 fragment (AIPAPTDLKFTQVTPTSLSAQWTPPNVQLTG) | 11 | 
III 12-2: peptide consisting of SEQ ID NO:2, part of Hep 2 fragment (INLAPDSSSVVVSGLMVATKWE) | 13 | 
III 12-3: peptide consisting of SEQ ID NO:3, part of Hep 2 fragment (VSVYALKDTLTSRPAQGVVTTLE) | 7 | 
III 13-1: peptide consisting of SEQ ID NO:4, part of Hep 2 fragment (NVSPPRRARVTDATETTITISWRTKTETI) | 4 | 
III 13-2: peptide consisting of SEQ ID NO:5, part of Hep 2 fragment (TGFQVDAVPANGQTPIQRTIKPDVR) | 11 | 
III 13-3: peptide consisting of SEQ ID NO:6, part of Hep 2 fragment (SYTITGLQPGTDYKIYLYTLNDNAR) | 9 | 
III 14-1: peptide consisting of SEQ ID NO:7, part of Hep 2 fragment (NLRFLATTPNSLLVSWQPPRARITGYIIK) | 11 | 
III 14-2A: peptide of sequence ID NO:10, a part of peptide III 14-2; tested KLH modified (RPRPGVTEATITG; also: KLH conjugated) |  | cell adhesion inhibition activity (in words) (A375 melanoma cell [2]): very little cell adhesion inhibition activity
III 14-2B: peptide of sequence ID NO:11, a part of peptide III 14-2; tested KLH modified (LEPGTEYTIYVIALKNNQK; also: KLH conjugated) |  | cell adhesion inhibition activity (in words) (A375 melanoma cell [2]): the same strong cell adhesion inhibition activity as that of the peptide III 14-2
III 14-2C: peptide of sequence ID NO:12, a part of peptide III 14-2; tested KLH modified (YTIYVIALKNNQK; also: KLH conjugated) |  | cell adhesion inhibition activity (in words) (A375 melanoma cell [2]): the same strong cell adhesion inhibition activity as that of the peptide III 14-2
